Test results from PMC3609710 (Journal of chromatography. A, 2012).
Read-outs that look alike come from different tables or passages of the source.

Type: in vivo, mouse (C57Bl/6)
Settings: mouse serum, single IP injection of T1AM 25 mg/kg

SMILES | serum concentration (10 minutes post-injection) [µM] | serum concentration (20 minutes post-injection) [µM] | greatest serum concentration (at 6 hours post-injection) [µM]
NCCc1ccc(Oc2ccc(O)cc2)c(I)c1 [T1AM, 3-Iodothyronamine] | 16.6 ± 8.5 | 5.6 ± 3.1 | 
O=C(O)Cc1ccc(Oc2ccc(O)cc2)cc1 [TA0, thyroacetic acid] |  |  | 0.77 ± 0.16
O=C(O)Cc1ccc(Oc2ccc(O)cc2)c(I)c1 [TA1, 3-iodothyroacetic acid] | 17.7 ± 4.6 | 23.5 ± 13.2 | 
